Source: ChEMBL document CHEMBL3132793, “Novel FK506 and FK520 analogues via mutasynthesis: mutasynthon scope and product characteristics” (Medchemcomm, 2013)
Values after ≈ are worked out from the molar mass of the structure shown.

Key:
[1] = Solubility of the compound in phosphate buffered saline; format: physicochemical
[2] = Half life in mouse liver microsomes; format: ADME, Microsome
[3] = Half life in human liver microsomes; format: ADME
[4] = Inhibition of calcineurin in human Jurkat cells assessed as inhibition of NFAT-mediated IL-2 production after 8 hrs by beta-lactamase reporter gene assay; format: cell-based
[5] = phosphate buffered saline, read-out: solubility

SMILES	solubility [1, 5]	half-life [2]	half-life [3]	IC50 [4]	solubility ([1]; buffer)
C=CC[C@@H]1/C=C(\C)C[C@H](C)C[C@H](OC)[C@H]2O[C@@](O)(C(=O)C(=O)N3CCCC[C@H]3C(=O)O[C@H](/C(C)=C/[C@H]3CC[C@H](O)CC3)[C@H](C)[C@@H](O)CC1=O)[C@H](C)C[C@@H]2OC	1.3 µM (≈ 1.01 µg/mL)	9 min	2.6 min	0.145 nM	
CC[C@@H]1/C=C(\C)C[C@H](C)C[C@H](OC)[C@H]2O[C@@](O)(C(=O)C(=O)N3CCCC[C@H]3C(=O)O[C@H](/C(C)=C/[C@H]3CC[C@H](O)CC3)[C@H](C)[C@@H](O)CC1=O)[C@H](C)C[C@@H]2OC				0.249 nM	
C=CC[C@@H]1/C=C(\C)C[C@H](C)C[C@H](OC)[C@H]2O[C@@](O)(C(=O)C(=O)N3CCCC[C@H]3C(=O)O[C@H](/C(C)=C/[C@H]3CC=CCC3)[C@H](C)[C@@H](O)CC1=O)[C@H](C)C[C@@H]2OC	0.7 µM (≈ 0.529 µg/mL)	3 min	5.7 min	0.433 nM	
CC[C@@H]1/C=C(\C)C[C@H](C)C[C@H](OC)[C@H]2O[C@@](O)(C(=O)C(=O)N3CCCC[C@H]3C(=O)O[C@H](/C(C)=C/[C@@H]3CC[C@@H](O)[C@@H](F)C3)[C@H](C)[C@@H](O)CC1=O)[C@H](C)C[C@@H]2OC	35.6 µM (≈ 27.8 µg/mL)	11.3 min	3.2 min	0.082 nM	
CC[C@@H]1/C=C(\C)C[C@H](C)C[C@H](OC)[C@H]2O[C@@](O)(C(=O)C(=O)N3CCCC[C@H]3C(=O)O[C@H](/C(C)=C/[C@H]3CCCC(O)CC3)[C@H](C)[C@@H](O)CC1=O)[C@H](C)C[C@@H]2OC (stereo not given in full)	86.5 µM (≈ 67.1 µg/mL)	3.8 min	3.1 min	0.072 nM	
CC[C@@H]1/C=C(\C)C[C@H](C)C[C@H](OC)[C@H]2O[C@@](O)(C(=O)C(=O)N3CCCC[C@H]3C(=O)O[C@H](/C(C)=C/C3CCOCC3)[C@H](C)[C@@H](O)CC1=O)[C@H](C)C[C@@H]2OC	13.4 µM (≈ 10 µg/mL)	7.6 min	1.8 min	0.461 nM	
CO[C@H]1C[C@@H](C)C/C(C)=C/[C@@H](C)C(=O)C[C@H](O)[C@@H](C)[C@@H](/C(C)=C/[C@@H]2CC[C@@H](O)[C@@H](F)C2)OC(=O)[C@@H]2CCCCN2C(=O)C(=O)[C@]2(O)O[C@H]1[C@@H](OC)C[C@H]2C				0.283 nM	
CC[C@@H]1/C=C(\C)C[C@H](C)C[C@H](OC)[C@H]2O[C@@](O)(C(=O)C(=O)N3CCCC[C@H]3C(=O)O[C@H](/C(C)=C/[C@@H]3CC[C@@H](O)[C@H](OC)C3)[C@H](C)[C@@H](O)CC1=O)[C@H](C)C[C@@H]2OC [ASCOMYCIN]		17.4 min	2.4 min	0.205 nM	40.2 µM (≈ 31.8 µg/mL)
C=CC[C@@H]1/C=C(\C)C[C@H](C)C[C@H](OC)[C@H]2O[C@@](O)(C(=O)C(=O)N3CCCC[C@H]3C(=O)O[C@H](/C(C)=C/[C@@H]3CC[C@@H](O)[C@H](OC)C3)[C@H](C)[C@@H](O)CC1=O)[C@H](C)C[C@@H]2OC [TACROLIMUS ANHYDROUS]	42.4 µM (≈ 34.1 µg/mL)	22.1 min	2.4 min	0.056 nM	
